Laboratory results from patent publication US20070021360A1, “Compositions, formulations and kit with anti-sense oligonucleotide and anti-inflammatory steroid and/or obiquinone for treatment of respiratory and lung disesase” (priority 2001, published 2007).

Key:
[1] = biological target: T1, B2 bradykinin receptor (Oryctolagus cuniculus, UniProt Q28642); assay: Bradykinin B2 receptor binding ([3H]NPC 17731) in airway smooth muscle membranes of treated rabbits; set-up: species or system rabbit; settings: for B2 receptor Bmax: [3H]NPC 17731
T1 construct: Tissue from airway smooth muscle was dissected to primary, secondary and tertiary bronchi from rabbits; from tissue; host or cells: rabbit airway smooth muscle membranes
T1 sequence (Q28642 1-367): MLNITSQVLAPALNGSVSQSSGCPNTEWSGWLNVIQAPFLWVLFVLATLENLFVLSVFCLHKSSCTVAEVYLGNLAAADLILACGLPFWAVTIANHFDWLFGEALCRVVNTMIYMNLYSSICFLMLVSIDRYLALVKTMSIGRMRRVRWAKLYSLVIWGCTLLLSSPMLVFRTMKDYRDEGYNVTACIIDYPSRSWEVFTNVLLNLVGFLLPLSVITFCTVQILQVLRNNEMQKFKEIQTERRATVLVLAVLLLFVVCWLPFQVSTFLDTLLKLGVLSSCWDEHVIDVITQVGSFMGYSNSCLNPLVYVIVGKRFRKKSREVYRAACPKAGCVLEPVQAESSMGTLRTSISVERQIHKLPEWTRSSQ
Procedure: (§1) A membrane fraction was prepared according to the method of Ali et al. (Ali, S., et al., Am. J. Resp. Crit Care Med. 149: 908 (1994), the relevant section relating to the preparation of the membrane fraction is incorporated in its entirety hereby by reference). The protein content was determined by the method of Bradford and plasma membranes were incubated with 0.2 U/ml adenosine deaminase for 30 minutes at 37 EC to remove endogenous adenosine. See, Bradford, M. M. Anal. Biochem. 72, 240-254 (1976), the relevant portion of which is hereby incorporated in its entirety by reference. The binding of [^3H]DPCPX, [^3H]NPC17731, or [^3H]CGS-21680 was measured as described by Jarvis et al. See, Jarvis, M. F., et al., Pharmacol. Exptl. Ther. 251, 888-893 (1989), the relevant portion of which is fully incorporated herein by reference.

[2] = biological target: T2, adenosine A1 receptor (Oryctolagus cuniculus, UniProt P34970); assay: Adenosine A1 receptor binding ([3H]DPCPX) in airway smooth muscle membranes of treated rabbits; settings: for A1 receptor Bmax: [3H]DPCPX
T2 construct: Airway smooth muscle tissue was dissected from each rabbit and a membrane fraction prepared; from tissue; host or cells: rabbit airway smooth muscle, crude plasma membranes
T2 sequence (P34970 1-328): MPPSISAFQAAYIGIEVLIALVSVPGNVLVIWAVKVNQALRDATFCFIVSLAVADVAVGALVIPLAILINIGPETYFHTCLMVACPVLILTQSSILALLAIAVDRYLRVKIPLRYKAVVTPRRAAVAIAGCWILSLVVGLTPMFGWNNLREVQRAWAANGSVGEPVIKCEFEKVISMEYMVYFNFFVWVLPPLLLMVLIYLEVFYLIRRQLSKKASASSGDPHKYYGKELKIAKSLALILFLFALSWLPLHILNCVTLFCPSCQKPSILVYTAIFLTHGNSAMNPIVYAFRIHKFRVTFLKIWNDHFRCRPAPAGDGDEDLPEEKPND
Description: At the conclusion of the cross-over experiment of Example 3 above, airway smooth muscle from all rabbits was quantitatively analyzed for adenosine A1 receptor number. As a control for the specificity of the anti-sense oligonucleotide, adenosine A2 receptors, which should not have been affected, were also quantified. Airway smooth muscle tissue was dissected from each rabbit and a membrane fraction prepared according to the method of Kleinstein et al. (Kleinstein, J. and Glossrnann, H., Naunyn-Schrniedeberg's Arch Pharmacol. 305: 191-200 (1978)), the relevant portion of which is hereby incorporated in its entirety by reference, with slight modifications. Crude plasma membrane preparations were stored at −70 EC until the time of assay. Protein content was determined by the method of Bradford (M. Bradford, Anal. Biochem. 72, 240-254 (1976), the relevant portion of which is hereby incorporated in its entirety by reference). Frozen plasma membranes were thawed at room temperature and were incubated with 0.2 U/ml adenosine deaminase for 30 minutes at 37 EC to remove endogenous adenosine. The binding of [^3H] DPCPX (A1 receptor-specific) or [^3H] CGS-21680 ([…]) was measured as previously described by Ali et al. (Ali, S. et al., J. Pharmacol. Exp. Ther. 268, Ara. J. Physiol 266, L271-277 (1994), the relevant portion of which is hereby incorporated in its entirety by reference). […] There was no change in adenosine A2 receptor number, as assayed by specific binding of the A2 receptor-specific agonist 2-[p-(2-carboxyethyl)-phenethylamino]-5′-(N-ethylcarboxamido) adenosine (CGS-21680). This is illustrated in Table 6 below.
as §1

[3] = rabbits treated with 2 mg oligo
[4] = rabbits treated with 20 mg oligo

Substance: 5′-GTAGCAGGCGGGGATGGGGGC-3′ [HAdA1MM1, reference compound]
- Kd ([1]; Kd of [3H]NPC 17731 in membranes of rabbits treated with 2 mg oligo): 0.38 ± 0.028 nM
- Kd ([1]; Kd of [3H]NPC 17731 in membranes of rabbits treated with 20 mg oligo): 0.35 ± 0.024 nM
- B2 receptor Bmax [1, 3]: 14.6 ± 1.02 fmol
- B2 receptor Bmax [1, 4]: 14.0 ± 1.0 fmol
- Kd ([2]; Kd of [3H]DPCPX in membranes of rabbits treated with 2 mg oligo): 0.37 ± 0.033 nM
- Kd ([2]; Kd of [3H]DPCPX in membranes of rabbits treated with 20 mg oligo): 0.34 ± 0.027 nM
- A1 receptor Bmax [2, 3]: 51.8 ± 3.88 fmol
- A1 receptor Bmax [2, 4]: 52.0 ± 3.64 fmol
- A1-Specific Binding ([2]; airway smooth muscle membranes after cross-over experiment, mean (n = 8) ± SEM): 1105 ± 48
